Assay results: patent US20190343908A1, “Therapeutic Combination for the Treatment of Cancer” (Nerium Biotechnology Inc., priority 2011, published 2019)

Key:
[1] = system: PC3 (human prostate cancer); assay: Methyl-Tetrazolium viability assay, PC3; format: cell-based; set-up: key: absorbance at 570 nm (optical density)
Text: The Methyl-Tetrazolium dye assay measures the activity of enzymes in mitochondria. The dye precursor is taken up by cells, where it undergoes reduction to the purple formazan. It measures only the mitochondrial activity and, thus, it is not always a reliable indication of whether the cells themselves are alive or dead, since even a recently dead cell has […] enzyme activity in mitochondria. Intracellular glucose concentration, pH, and time before assay all affect the measurements.
(§1) The Methyl Tetrazolium, Sulforhodamine B, and Crystal Violet assays were used to assess cell viabilities. The incubation times were 24 hours, 48 hours, and 72 hours. The Nerium oleander extract Anvirzel™ (a hot water extract of oleander obtained from Salud Integral, Honduras) was tested in concentrations ranging from 0.01 ng/mL to 10 ng/mL.
(§2) Cells were detached by trypsinization (Trypsin-0.25% EDTA, Invitrogen, 25200-072) during the logarithmic phase of culture growth and plated in 96-well plates (18.000 cells/well) (Corning, Costar 359) in a final volume of 200 μl of medium per well. […] The absorbance was measured after 24 hours, 48 hours, and 72 hours of incubation.
For the Methyl-Tetrazolium assay, the dye (Sigma, M2128; 5 mg/mL, diluted in phosphate-buffered saline) was added to each well and plates were incubated for 3 hours at 37° C. After the end of the incubation period, the medium was discarded and the cells were rinsed with phosphate-buffered saline. Finally, the formazan crystals were dissolved in dimethylsulphoxide (Sigma, D4540).
(§3) The optical density of each plate was measured on a μQuant spectrophotometer and the data were analyzed with Gen5 software (μQuant Biomolecular Spectrophotometer MQX200 and Gen5™ Microplate Data Collection & Analysis software, BioTek® Instruments. Inc, April 2008). Absorbance was measured at 570 nm for all assays and a second wavelength was measured in order to subtract noise. For the Methyl-Tetrazolium assay this second wavelength was 630 nm and for the Sulforhodamine B and Crystal Violet assays it was 690 nm.

[2] = system: HCT-116 (colorectal cancer); assay: Sulforhodamine B viability assay, HCT-116; format: cell-based, human; set-up: key: absorbance (optical density) at 570 nm, second wavelength subtracted; conditions: for Average SRB: HCT-116
Text: Three different viability assays were chosen to complement each other and yielded results dependent on concentration and cell line: the Methyl Tetrazolium dye assay, the Sulforhodamine B fluorescent dye assay, and the Crystal Violet dye assay.
The Sulforhodamine B and Crystal Violet assays provide information about protein and were used to complement the Methyl-Tetrazolium dye assay. […] It is used for the quantification of cellular proteins of cultured cells. The assay using Crystal Violet, a dye that binds electrostatically to proteins and stains DNA, provides a reliable, simple assay for measuring viability of cells.
as §1, §2
For the Sulforhodamine B assay, 96-well plates were fixed by 10% trichloroacetic acid (Fluka, 91228) and were incubated at 4° C. for 1 hour. Afterwards, plates were rinsed with water and cells were stained with 0.4% Sulforhodamine B (Sigma, 341738), dissolved in 1% acetic acid (Carlo Ebra, 401422) for 15 minutes at room temperature (RT). The unbound stain was washed twice with 1% acetic acid. Finally, 10 mM Tris Buffer pH 10.5 (Sigma, T6791) was added to dissolve the dye.
as §3

N.N.[Cl][Pt][Cl] [cisplatin]
MTT Average ([1]; PC3 Run 1, 24 h, 0.1 μg/ml CDDP): 0.137
MTT Average ([1]; PC3 Run 1, 24 h, 1 μg/ml CDDP): 0.049
MTT Average ([1]; PC3 Run 1, 24 h, 10 μg/ml CDDP): 0.091
MTT Average ([1]; PC3 Run 1, 24 h, 100 μg/ml CDDP): 0.053
MTT Average ([1]; PC3 Run 1, 48 h, 0.1 μg/ml CDDP): 0.162
MTT Average ([1]; PC3 Run 1, 48 h, 1 μg/ml CDDP): 0.027
MTT Average ([1]; PC3 Run 1, 48 h, 10 μg/ml CDDP): 0.064
MTT Average ([1]; PC3 Run 1, 48 h, 100 μg/ml CDDP): 0.029
MTT Average ([1]; PC3 Run 1, 72 h, 0.1 μg/ml CDDP): 0.188
MTT Average ([1]; PC3 Run 1, 72 h, 1 μg/ml CDDP): 0.034
MTT Average ([1]; PC3 Run 1, 72 h, 10 μg/ml CDDP): 0.044
MTT Average ([1]; PC3 Run 1, 72 h, 100 μg/ml CDDP): 0.029
MTT Average ([1]; PC3 Run 2, 24 h, 0.1 μg/ml CDDP): 0.072
MTT Average ([1]; PC3 Run 2, 24 h, 1 μg/ml CDDP): 0.04
MTT Average ([1]; PC3 Run 2, 24 h, 10 μg/ml CDDP): 0.079
MTT Average ([1]; PC3 Run 2, 24 h, 100 μg/ml CDDP): 0.052
MTT Average ([1]; PC3 Run 2, 48 h, 0.1 μg/ml CDDP): 0.195
MTT Average ([1]; PC3 Run 2, 48 h, 1 μg/ml CDDP): 0.051
MTT Average ([1]; PC3 Run 2, 48 h, 10 μg/ml CDDP): 0.074
MTT Average ([1]; PC3 Run 2, 48 h, 100 μg/ml CDDP): 0.047
MTT Average ([1]; PC3 Run 2, 72 h, 0.1 μg/ml CDDP): 0.223
MTT Average ([1]; PC3 Run 2, 72 h, 1 μg/ml CDDP): 0.039
MTT Average ([1]; PC3 Run 2, 72 h, 10 μg/ml CDDP): 0.068
MTT Average ([1]; PC3 Run 2, 72 h, 100 μg/ml CDDP): 0.037
MTT Average ([1]; PC3 Run 3, 24 h, 0.1 μg/ml CDDP): 0.088
MTT Average ([1]; PC3 Run 3, 24 h, 1 μg/ml CDDP): 0.041
MTT Average ([1]; PC3 Run 3, 24 h, 10 μg/ml CDDP): 0.096
MTT Average ([1]; PC3 Run 3, 24 h, 100 μg/ml CDDP): 0.053
MTT Average ([1]; PC3 Run 3, 48 h, 1 μg/ml CDDP): 0.033
MTT Average ([1]; PC3 Run 3, 48 h, 10 μg/ml CDDP): 0.062
MTT Average ([1]; PC3 Run 3, 48 h, 100 μg/ml CDDP): 0.03
MTT Average ([1]; PC3 Run 3, 72 h, 0.1 μg/ml CDDP): 0.151
MTT Average ([1]; PC3 Run 3, 72 h, 1 μg/ml CDDP): 0.027
MTT Average ([1]; PC3 Run 3, 72 h, 10 μg/ml CDDP): 0.057
MTT Average ([1]; PC3 Run 3, 72 h, 100 μg/ml CDDP): 0.028
SRB Average ([2]; HCT-116, Run 3, 24 h, 0.1 μg/ml CDDP): 2.01
SRB Average ([2]; HCT-116, Run 3, 24 h, 1 μg/ml CDDP): 2.129
SRB Average ([2]; HCT-116, Run 3, 24 h, 10 μg/ml CDDP): 2.05
SRB Average ([2]; HCT-116, Run 3, 24 h, 100 μg/ml CDDP): 2.084
SRB Average ([2]; HCT-116, Run 3, 48 h, 0.1 μg/ml CDDP): 1.933
SRB Average ([2]; HCT-116, Run 3, 48 h, 1 μg/ml CDDP): 1.394
SRB Average ([2]; HCT-116, Run 3, 48 h, 10 μg/ml CDDP): 1.353
SRB Average ([2]; HCT-116, Run 3, 48 h, 100 μg/ml CDDP): 1.136
SRB Average ([2]; HCT-116, Run 3, 72 h, 0.1 μg/ml CDDP): 2.357
SRB Average ([2]; HCT-116, Run 3, 72 h, 1 μg/ml CDDP): 1.78
SRB Average ([2]; HCT-116, Run 3, 72 h, 10 μg/ml CDDP): 1.876
SRB Average ([2]; HCT-116, Run 3, 72 h, 100 μg/ml CDDP): 1.404
Average SRB ([2]; Run 1, 24 h, 0.1 μg/ml CDDP): 1.56
Average SRB ([2]; Run 1, 24 h, 1 μg/ml CDDP): 1.606
Average SRB ([2]; Run 1, 24 h, 10 μg/ml CDDP): 1.527
Average SRB ([2]; Run 1, 24 h, 100 μg/ml CDDP): 1.736
Average SRB ([2]; Run 1, 48 h, 0.1 μg/ml CDDP): 2.278
Average SRB ([2]; Run 1, 48 h, 1 μg/ml CDDP): 2.16
Average SRB ([2]; Run 1, 48 h, 10 μg/ml CDDP): 2.055
Average SRB ([2]; Run 1, 48 h, 100 μg/ml CDDP): 1.169
Average SRB ([2]; Run 1, 72 h, 0.1 μg/ml CDDP): 2.449
Average SRB ([2]; Run 1, 72 h, 1 μg/ml CDDP): 1.569
Average SRB ([2]; Run 1, 72 h, 10 μg/ml CDDP): 1.67
Average SRB ([2]; Run 1, 72 h, 100 μg/ml CDDP): 1.616
Average SRB ([2]; Run 2, 24 h, 0.1 μg/ml CDDP): 1.357
Average SRB ([2]; Run 2, 24 h, 1 μg/ml CDDP): 1.199
Average SRB ([2]; Run 2, 24 h, 10 μg/ml CDDP): 1.056
Average SRB ([2]; Run 2, 24 h, 100 μg/ml CDDP): 1.173
Average SRB ([2]; Run 2, 48 h, 0.1 μg/ml CDDP): 2.886
Average SRB ([2]; Run 2, 48 h, 1 μg/ml CDDP): 2.878
Average SRB ([2]; Run 2, 48 h, 10 μg/ml CDDP): 2.746
Average SRB ([2]; Run 2, 48 h, 100 μg/ml CDDP): 2.664
Average SRB ([2]; Run 2, 72 h, 0.1 μg/ml CDDP): 2.909
Average SRB ([2]; Run 2, 72 h, 1 μg/ml CDDP): 2.703
Average SRB ([2]; Run 2, 72 h, 10 μg/ml CDDP): 2.728
Average SRB ([2]; Run 2, 72 h, 100 μg/ml CDDP): 2.514
